In patent US12077503B2, “Substituted cyclic amides and their use as herbicides” (FMC CORPORATION, priority 2015, dated 2024):

How the values were obtained:
Test in all cases: Test C preemergence
Assay type in all cases: in vivo
[1] = tested on: Galium (catchweed bedstraw, Galium aparine); details: for Plant response rating, Galium: scale 0 to 100, 0 no effect, 100 complete control
How it was run: (§1)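 Seeds in loam-sand soil treated preemergence, or plants in peat-based medium sprayed postemergence at 2–18 cm (1- to 4-leaf stage), with compound in a non-phytotoxic solvent mixture containing surfactant. Greenhouse-held 13–15 d, then visually rated against controls on a 0–100 scale (0 = no effect, 100 = complete control); dash = not tested.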

[2] = tested on: barnyardgrass (Echinochloa crus-galli); details: for Plant response rating, Barnyardgrass: scale 0 to 100, 0 no effect, 100 complete control
How it was run: as §1

[3] = tested on: blackgrass (Alopecurus myosuroides); details: for Plant response rating, Blackgrass: scale 0 to 100, 0 no effect, 100 complete control
How it was run: as §1

[4] = tested on: corn (Zea mays); details: for Plant response rating, Corn: scale 0 to 100, 0 no effect, 100 complete control
How it was run: as §1

[5] = tested on: crabgrass, large (large crabgrass, Digitaria sanguinalis); details: for Plant response rating, Crabgrass, Large: scale 0 to 100, 0 no effect, 100 complete control
How it was run: as §1

[6] = tested on: foxtail, giant (giant foxtail, Setaria faberii); details: for Plant response rating, Foxtail, Giant: scale 0 to 100, 0 no effect, 100 complete control
How it was run: as §1

[7] = tested on: lambsquarters (Chenopodium album); details: for Plant response rating, Lambsquarters: scale 0 to 100, 0 no effect, 100 complete control
How it was run: as §1

[8] = tested on: morningglory (Ipomoea coccinea); details: for Plant response rating, Morningglory: scale 0 to 100, 0 no effect, 100 complete control
How it was run: as §1

[9] = tested on: nutsedge, yellow (yellow nutsedge, Cyperus esculentus); details: for Plant response rating, Nutsedge, Yellow: scale 0 to 100, 0 no effect, 100 complete control
How it was run: as §1

[10] = tested on: oilseed rape (Brassica napus); details: for Plant response rating, Oilseed Rape: scale 0 to 100, 0 no effect, 100 complete control
How it was run: as §1

[11] = tested on: pigweed (Amaranthus retroflexus); details: for Plant response rating, Pigweed: scale 0 to 100, 0 no effect, 100 complete control
How it was run: as §1

[12] = tested on: ragweed (common ragweed, Ambrosia elatior); details: for Plant response rating, Ragweed: scale 0 to 100, 0 no effect, 100 complete control
How it was run: as §1

[13] = tested on: ryegrass, Italian (Italian ryegrass, Lolium multiflorum); details: for Plant response rating, Ryegrass, Italian: scale 0 to 100, 0 no effect, 100 complete control
How it was run: as §1

[14] = tested on: soybean (Glycine max); details: for Plant response rating, Soybean: scale 0 to 100, 0 no effect, 100 complete control
How it was run: as §1

[15] = tested on: velvetleaf (Abutilon theophrasti); details: for Plant response rating, Velvetleaf: scale 0 to 100, 0 no effect, 100 complete control
How it was run: as §1

[16] = tested on: waterhemp (common waterhemp, Amaranthus rudis); details: for Plant response rating, Waterhemp: scale 0 to 100, 0 no effect, 100 complete control
How it was run: as §1

[17] = tested on: wheat (winter wheat, Triticum aestivum); details: for Plant response rating, Wheat: scale 0 to 100, 0 no effect, 100 complete control
How it was run: as §1

[18] = 31 g ai/ha, 0 is no effect, 100 is complete control

Question: For `O=C1NCC(c2cc(F)cc(Cl)c2)C1C(=O)Nc1cccc(F)c1F` (centres unmarked) [Compound 492], which “Plant response rating (scale of 0 to 100), Galium” value [1, 18] is on record?
Answer: 85

Question: What about the “Plant response rating, Galium” value ([1]; 62 g ai/ha) of the same compound?
Answer: 0

Question: And the “Plant response rating, Galium” value ([1]; 125 g ai/ha)?
Answer: 0

Question: What about the “Plant response rating, Galium” value ([1]; 250 g ai/ha) of the same compound?
Answer: 85

Question: And the “Plant response rating (scale of 0 to 100), Barnyardgrass” value [2, 18]?
Answer: 80

Question: And the “Plant response rating, Barnyardgrass” value ([2]; 62 g ai/ha)?
Answer: 90

Question: And the “Plant response rating, Barnyardgrass” value ([2]; 125 g ai/ha)?
Answer: 90

Question: What about the “Plant response rating, Barnyardgrass” value ([2]; 250 g ai/ha) of the same compound?
Answer: 95

Question: And the “Plant response rating (scale of 0 to 100), Blackgrass” value [3, 18]?
Answer: 0

Question: What about the “Plant response rating, Blackgrass” value ([3]; 62 g ai/ha) of the same compound?
Answer: 5

Question: What about the “Plant response rating, Blackgrass” value ([3]; 125 g ai/ha) of the same compound?
Answer: 10

Question: What about the “Plant response rating, Blackgrass” value ([3]; 250 g ai/ha) of the same compound?
Answer: 10

Question: And the “Plant response rating (scale of 0 to 100), Corn” value [4, 18]?
Answer: 0

Question: What about the “Plant response rating, Corn” value ([4]; 62 g ai/ha) of the same compound?
Answer: 10

Question: What about the “Plant response rating, Corn” value ([4]; 125 g ai/ha) of the same compound?
Answer: 55

Question: What about the “Plant response rating, Corn” value ([4]; 250 g ai/ha) of the same compound?
Answer: 85

Question: What about the “Plant response rating (scale of 0 to 100), Crabgrass, Large” value [5, 18] of the same compound?
Answer: 90

Question: And the “Plant response rating, Crabgrass, Large” value ([5]; 62 g ai/ha)?
Answer: 95

Question: What about the “Plant response rating, Crabgrass, Large” value ([5]; 125 g ai/ha) of the same compound?
Answer: 95

Question: What about the “Plant response rating, Crabgrass, Large” value ([5]; 250 g ai/ha) of the same compound?
Answer: 95

Question: What about the “Plant response rating (scale of 0 to 100), Foxtail, Giant” value [6, 18] of the same compound?
Answer: 90

Question: What about the “Plant response rating, Foxtail, Giant” value ([6]; 62 g ai/ha) of the same compound?
Answer: 90

Question: What about the “Plant response rating, Foxtail, Giant” value ([6]; 125 g ai/ha) of the same compound?
Answer: 90

Question: What about the “Plant response rating, Foxtail, Giant” value ([6]; 250 g ai/ha) of the same compound?
Answer: 95

Question: And the “Plant response rating (scale of 0 to 100), Lambsquarters” value [7, 18]?
Answer: 25

Question: What about the “Plant response rating, Lambsquarters” value ([7]; 62 g ai/ha) of the same compound?
Answer: 35

Question: What about the “Plant response rating, Lambsquarters” value ([7]; 125 g ai/ha) of the same compound?
Answer: 40

Question: What about the “Plant response rating, Lambsquarters” value ([7]; 250 g ai/ha) of the same compound?
Answer: 50

Question: What about the “Plant response rating (scale of 0 to 100), Morningglory” value [8, 18] of the same compound?
Answer: 0

Question: What about the “Plant response rating, Morningglory” value ([8]; 62 g ai/ha) of the same compound?
Answer: 10

Question: What about the “Plant response rating, Morningglory” value ([8]; 125 g ai/ha) of the same compound?
Answer: 20

Question: And the “Plant response rating, Morningglory” value ([8]; 250 g ai/ha)?
Answer: 45

Question: And the “Plant response rating (scale of 0 to 100), Nutsedge, Yellow” value [9, 18]?
Answer: 0

Question: And the “Plant response rating, Nutsedge, Yellow” value ([9]; 62 g ai/ha)?
Answer: 0

Question: What about the “Plant response rating, Nutsedge, Yellow” value ([9]; 125 g ai/ha) of the same compound?
Answer: 0

Question: What about the “Plant response rating, Nutsedge, Yellow” value ([9]; 250 g ai/ha) of the same compound?
Answer: 0

Question: What about the “Plant response rating (scale of 0 to 100), Oilseed Rape” value [10, 18] of the same compound?
Answer: 0

Question: And the “Plant response rating, Oilseed Rape” value ([10]; 62 g ai/ha)?
Answer: 50

Question: What about the “Plant response rating, Oilseed Rape” value ([10]; 125 g ai/ha) of the same compound?
Answer: 85

Question: What about the “Plant response rating, Oilseed Rape” value ([10]; 250 g ai/ha) of the same compound?
Answer: 85

Question: And the “Plant response rating (scale of 0 to 100), Pigweed” value [11, 18]?
Answer: 0

Question: And the “Plant response rating, Pigweed” value ([11]; 62 g ai/ha)?
Answer: 25

Question: What about the “Plant response rating, Pigweed” value ([11]; 125 g ai/ha) of the same compound?
Answer: 75

Question: And the “Plant response rating, Pigweed” value ([11]; 250 g ai/ha)?
Answer: 80

Question: And the “Plant response rating (scale of 0 to 100), Ragweed” value [12, 18]?
Answer: 0

Question: And the “Plant response rating, Ragweed” value ([12]; 62 g ai/ha)?
Answer: 10

Question: What about the “Plant response rating, Ragweed” value ([12]; 125 g ai/ha) of the same compound?
Answer: 35

Question: And the “Plant response rating, Ragweed” value ([12]; 250 g ai/ha)?
Answer: 45

Question: And the “Plant response rating (scale of 0 to 100), Ryegrass, Italian” value [13, 18]?
Answer: 0

Question: What about the “Plant response rating, Ryegrass, Italian” value ([13]; 62 g ai/ha) of the same compound?
Answer: 5

Question: What about the “Plant response rating, Ryegrass, Italian” value ([13]; 125 g ai/ha) of the same compound?
Answer: 25

Question: And the “Plant response rating, Ryegrass, Italian” value ([13]; 250 g ai/ha)?
Answer: 20

Question: And the “Plant response rating (scale of 0 to 100), Soybean” value [14, 18]?
Answer: 50

Question: What about the “Plant response rating, Soybean” value ([14]; 62 g ai/ha) of the same compound?
Answer: 0

Question: And the “Plant response rating, Soybean” value ([14]; 125 g ai/ha)?
Answer: 40

Question: And the “Plant response rating, Soybean” value ([14]; 250 g ai/ha)?
Answer: 0

Question: And the “Plant response rating (scale of 0 to 100), Velvetleaf” value [15, 18]?
Answer: 0

Question: What about the “Plant response rating, Velvetleaf” value ([15]; 62 g ai/ha) of the same compound?
Answer: 0

Question: And the “Plant response rating, Velvetleaf” value ([15]; 125 g ai/ha)?
Answer: 5

Question: And the “Plant response rating, Velvetleaf” value ([15]; 250 g ai/ha)?
Answer: 5

Question: What about the “Plant response rating (scale of 0 to 100), Waterhemp” value [16, 18] of the same compound?
Answer: 0

Question: And the “Plant response rating, Waterhemp” value ([16]; 62 g ai/ha)?
Answer: 10

Question: And the “Plant response rating, Waterhemp” value ([16]; 125 g ai/ha)?
Answer: 40

Question: What about the “Plant response rating, Waterhemp” value ([16]; 250 g ai/ha) of the same compound?
Answer: 65

Question: What about the “Plant response rating (scale of 0 to 100), Wheat” value [17, 18] of the same compound?
Answer: 0

Question: And the “Plant response rating, Wheat” value ([17]; 62 g ai/ha)?
Answer: 0

Question: And the “Plant response rating, Wheat” value ([17]; 125 g ai/ha)?
Answer: 5

Question: What about the “Plant response rating, Wheat” value ([17]; 250 g ai/ha) of the same compound?
Answer: 35
